The values below come from PMC4145669, “The structure, function and properties of sirohaem decarboxylase - an enzyme with structural homology to a transcription factor family that is part of the alternative haem biosynthesis pathway” (Molecular Microbiology, 2014).

The test addresses T1, D. desulfuricans AhbA/B (sirohaem decarboxylase) (Desulfovibrio desulfuricans, UniProt B8J364+B8J3A4).
T1 construct: gene Ddes_0286; full-length AhbA (untagged) and AhbB with N-terminal hexa-His tag (kept), coexpressed in E. coli; heterodimer, 40 kDa by gel filtration
T1 sequence (B8J364 1-173): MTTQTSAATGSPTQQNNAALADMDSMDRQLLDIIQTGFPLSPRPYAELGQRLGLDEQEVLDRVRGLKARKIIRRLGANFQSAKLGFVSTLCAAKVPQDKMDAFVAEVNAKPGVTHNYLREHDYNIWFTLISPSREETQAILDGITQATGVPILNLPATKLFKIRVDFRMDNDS
T1 sequence (B8J3A4 1-159): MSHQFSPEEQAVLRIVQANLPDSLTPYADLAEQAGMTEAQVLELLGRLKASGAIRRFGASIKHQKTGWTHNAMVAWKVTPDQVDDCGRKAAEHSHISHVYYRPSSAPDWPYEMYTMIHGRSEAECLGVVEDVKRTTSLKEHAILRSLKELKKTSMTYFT
As to the kind of experiment: anaerobic stopped assay, MS quantification, global fit. Format: biochemical. As to conditions: competitive model of both substrates and product, single active site, 23 μM sirohaem, 2.3 μM enzyme.

Where two headings read alike, the source gives them in different places.

For monodecarboxysirohaem [MDSH], the Km (intermediate formed in situ from sirohaem, read-out: Km2) turned out to be 9.94 ± 1.19 µM.

As for sirohaem [SH], the Km (read-out: Km1) was found to be 11.7 ± 3.36 µM.
